Data reported in patent US8618075B2, “Certain compounds, compositions and methods” (Eisai Inc., priority 2007, dated 2013).

Assays:
[1] = tested on: L1210 mouse lymphoma model; test: Decitabine induced survival in the L1210 survival model; assay type: in vivo; conditions: for Survival compared to vehicle control and CDA inhibitor alone: p<0.05; for Mean Liver wts. (g) ± SD / Mean Spleen wts. (g) ± SD: on autopsy; for % ILS (Increased Life Span): vs vehicle group
Experimental: 30 CD2F1 6-7 weeks old female mice are randomly separated into 6 groups:
L1210 Intravenous (Lv.) Injection: Prior to experiment, L1210 cells are passed at least 3 times in CD2F1 female mice. The mice are injected intraperitoneally (i.p.) with L1210 ascites one prior week to sacrifice using CO2. Each mouse is placed on its back, its belly surface is cleaned with alcohol wipes and a small incision is made into its peritoneal cavity. 2 ml of ice cold 2.1% bovine serum albumin (BSA) in saline is injected into the cavity. Fluid is withdrawn from the cavity, transferred with an 18G 3 cc syringe into a clean sterile tube, and kept on ice. The fluid is diluted 1:10 in 2.1% BSA in saline and one drop of zap-o-globin is added to 2 ml of diluted ascites. Diluted ascites (dilute 1:10 again) are counted on a hematocytomer and the number of cells/ml is calculated. A stock of ascites in BSA solution is diluted to 1×10^4 cells/0.1 ml. Mice are injected with 0.1 ml of cell solution with a 27G needle.
Decitabine is prepared at a 1 mg/ml stock in PBS and diluted appropriately to achieve a 0.01 and 0.02 mg/ml dosing solution.
Dosing Scheme: Decitabine is prepared fresh twice a day. All dose solutions are stored on ice while dosing. Mice are dosed i.p. or orally (p.o.) twice a day (8 hours apart) for 4 consecutive days.
Survival and Autopsy: Mice are observed for survival and weighed daily (Monday to Friday) for the duration of the study (30 days). Dead mice are autopsied and observed for the presence of tumors in organs. Tumor deaths are determined by liver weights greater than 1.6 g and spleen weights greater than 150 mg as per Covey et al., Eur. J. Cancer Oncol. 1985.

[2] = Stability in acid solution by 1H NMR spectroscopy; assay type: physicochemical; conditions: D2O + one drop deuterated TFA, 27° C.
Experimental: Tetrahydrouridine (THU, 5 mg) is dissolved in D2O (0.75 mL). To this same sample is added one drop of deuterated TFA followed by an immediate ^1HNMR spectrum (FIG. 10). Even at this earliest time point, the peak at 5.4 ppm (˜10% conversion by integration) is indicative of the ring expansion to the TH-pyranose. After 4 hours, the TH-pyranose is more prevalent indicating about 60% conversion. At 72 hours, the conversion is almost entirely complete (>80%).
To this same sample is added one drop of deuterated TFA followed by an immediate ^1HNMR spectrum (FIG. 12). After the first time point, the only notable change is the epimerization of the aminal which is noted by the extra peaks at 5.92 and 5.93. After 4 hours and 72 hours (FIG. 13), there are no other notable changes in the spectra (D2O, 300 MHz, 27° C.).

[3] = tested on: A2780 human ovarian cancer xenograft; test: Gemcitabine-induced reduction of tumor volume in the mouse A2780 human ovarian cancer xenograft model; assay type: in vivo
Experimental: Female NCr nu/nu 5-6 week old mice are implanted subcutaneously with 30 to 60 mg tumor fragments. On day 11 when the tumors are approximately 200 mm^3, treatment starts as described in Table 5.
Tumor volume is followed throughout the experiment. Tumor volume is measured three times weekly. Tumor burden (mg=mm^3) is calculated from caliper measurements by the formula for the volume of a prolate ellipsoid (L×W^2)/2 where L and W are the respective orthogonal length and width measurements (mm).
The primary endpoints used to evaluate efficacy in the A2780 model are complete and partial tumor regressions, tumor growth delay and the number of tumor free survivors at the end of the study. A complete response (CR) is defined as a decrease in tumor size to an undetectable size (<50mm^3). A partial response (PR) is defined as >50% decrease in tumor mass form starting tumor size. A tumor that achieves a CR or PR during the study but starts to grow again is still considered a CR or PR. Tumor free survival (TFS) at the end of the study would be no detectable tumor (<50 mm^3) at study termination (day 74). Tumor growth delay (TGD) is defined in this experiment as the median number of days for the treatment group compared to the control group to reach 750 mm^3.

[4] = CDA inhibitor plus decitabine 0.1 mg/kg
[5] = Group 2: Compound 1 10 mg/kg p.o. alone
[6] = Group 2: Compound 1 10 mg/kg p.o. x2 for 4 days alone
[7] = Group 4: Compound 1 1 mg/kg + 0.1 mg/kg decitabine p.o.
[8] = Group 5: Compound 1 10 mg/kg + 0.1 mg/kg decitabine p.o.
[9] = 30 mg/kg Gemcitabine PO + Compound 1 10 mg/kg PO q3dx4
[10] = Group 3: 0.1 mg/kg decitabine p.o. alone
[11] = 10 mg/kg Gemcitabine PO q3dx4 alone
[12] = 30 mg/kg Gemcitabine PO q3dx4 alone

In the case of `O=C1N[C@H](O)CCN1C1O[C@H](CO)[C@@H](O)C1(F)F` (single isomer, unassigned) [Compound 1a, 2′2′-DiFluoro-TetraHydroUridine], the “Extending survival compared to the lower doses” value ([1]; 10 mg/kg Compound 1a in combination with DAC) was “more effective”, the “Survival compared to vehicle control and CDA inhibitor alone” value [1, 4] was “live longer” and the “Pyranose formation in acid” value ([2]; up to 72 hours, only epimerization of the aminal noted) was “no pyranose formation occurs”.
With `O=C1NC(O)CCN1C1O[C@H](CO)[C@@H](O)C1(F)F` (some centres unmarked) [Compound 1, 2′2′-DiFluoro-TetraHydroUridine] the “Mean Liver wts. (g) ± SD” value [1, 5] was 1.99 ± 0.22 g, the “Mean Spleen wts. (g) ± SD” value [1, 5] was 0.39 ± 0.07 g and the “Mean Survival (days) ± SD” value [1, 6] was 7.40 ± 0.55 days. For the same compound, the “% ILS (Increased Life Span)” value [1, 6] was 0.00%, the “Mean Survival (days) ± SD” value ([1]; Group 4: Compound 1 1 mg/kg + 0.1 mg/kg decitabine p.o. x2 for 4 days) was 12.8 ± 0.45 days and the “Mean Liver wts. (g) ± SD” value [1, 7] was 2.03 ± 0.08 g. For the same compound, the “Mean Spleen wts. (g) ± SD” value [1, 7] was 0.29 ± 0.03 g, the “% ILS (Increased Life Span)” value [1, 7] was 72.97% and the “Mean Survival (days) ± SD” value ([1]; Group 5: Compound 1 10 mg/kg + 0.1 mg/kg decitabine p.o. x2 for 4 days) was 14.2 ± 0.45 days. The “Mean Liver wts. (g) ± SD” value [1, 8] was 2.02 ± 0.27 g, the “Mean Spleen wts. (g) ± SD” value [1, 8] was 0.29 ± 0.07 g and the “% ILS (Increased Life Span)” value [1, 8] was 91.89%. The “TGD (tumor growth delay)” value ([3]; 10 mg/kg Compound 1 PO q3dx4 alone, median days to reach 750 mm^3 vs control) was 0.4 days, the “Tumors displaying CR” value ([3]; 10 mg/kg Gemcitabine PO + Compound 1 10 mg/kg PO q3dx4) was 75% and the “TGD (tumor growth delay)” value ([3]; 10 mg/kg Gemcitabine PO + Compound 1 10 mg/kg PO q3dx4, p<0.05 vs 10 mg/kg Gem alone) was 19.2 days. For the same compound, the CR [3, 9] was 100%, the “Incidence of TFS at day 74” value [3, 9] was 50% and the “TGD (tumor growth delay)” value ([3]; 30 mg/kg Gemcitabine PO + Compound 1 10 mg/kg PO q3dx4, p<0.05 vs 30 mg/kg Gem alone) was over 57 days.
With `O=C1N[C@H](O)CCN1C1O[C@H](CO)[C@@H](O)[C@H]1F` (stereo partly drawn) [Compound 3a, 2′(S)-fluoro-2′deoxy-tetrahydrouridine] the “Survival compared to vehicle control and CDA inhibitor alone” value [1, 4] was “live longer”.
For `Nc1ncn([C@H]2C[C@H](O)[C@@H](CO)O2)c(=O)n1` [Decitabine, 5-Aza-2′-deoxycytidine, reference compound], the “Mean Liver wts. (g) ± SD” value [1, 10] was 2.05 ± 0.17 g, the “Mean Spleen wts. (g) ± SD” value [1, 10] was 0.33 ± 0.06 g and the “% ILS (Increased Life Span)” value [1, 10] was 43.24%. For the same compound, the “Mean Survival (days) ± SD” value ([1]; Group 3: 0.1 mg/kg decitabine p.o. x2 for 4 days alone) was 10.6 ± 0.56 days, the “Survival compared to vehicle control and CDA inhibitor alone” value ([1]; decitabine 0.1 mg/kg alone) was “live longer” and the “Efficacy (survival) compared to 0.1 mg/kg decitabine i.p.” value ([1]; decitabine 0.1 mg/kg p.o., not significantly different, p=0.052) was “less effective”.
In the case of `Nc1ccn([C@@H]2O[C@H](CO)[C@@H](O)C2(F)F)c(=O)n1` [Gemcitabine, reference compound], the “Complete responses (CR)” value [3, 11] was “no CRs”, the “Partial responses (PR)” value [3, 11] was “no” and the “Tumor free survivors (TFS) at day 74” value [3, 11] was “no”. The “TGD (tumor growth delay)” value ([3]; 10 mg/kg Gemcitabine PO q3dx4 alone, not statistically significant) was 6.1 days, the “TGD (tumor growth delay)” value ([3]; 30 mg/kg Gemcitabine PO q3dx4 (MTD) alone, p<0.05 vs untreated control) was 22 days and the CRs [3, 12] was 63%. For the same compound, the “Tumor free survivors (TFS) at day 74” value [3, 12] was “no TFS”.
In the case of `O=C1NC(O)CCN1[C@@H]1O[C@H](CO)[C@@H](O)[C@H]1O` (some centres unmarked) [THU, Tetrahydrouridine], the “Conversion to TH-pyranose” value ([2]; after 4 hours) was “about 60%”, the “Conversion to TH-pyranose” value ([2]; at 72 hours) was over 80% and the “Conversion to TH-pyranose (by integration)” value ([2]; immediate spectrum) was about 10%.
